Results as given in US12497405B2, “Bicyclic heterocycle compounds methods of use thereof for the treatment of herpes viruses” (Merck Sharp & Dohme LLC, priority 2019, dated 2025).

system: CMV; test: Viral qPCR assay, CMV; assay type: cell-based; details: Human betaherpesvirus 5, 72 h, infected cells, viral genome copies by qPCR normalized to PPIA, read-out: CMV Cell EC50
Method: (§1) MRC5 cells, Vero cells, and MeWo cells were obtained from ATCC, and were maintained at 37° C./5% CO2/90% relative humidity in Minimal Essential Medium with 10% fetal bovine serum, […] L-glutamine, 100 units/ml penicillin and 100 ug/ml streptomycin. Assay plates were prepared by dispensing compounds dissolved in DMSO into wells of 384 well collagen-coated plates using an ECHO acoustic dispenser. Each test compound was tested in a 10-point, serial 3-fold dilution. Controls included uninfected cells and infected cells treated only with DMSO. Assays were initiated by mixing selected cells, in suspension, with virus, and dispensing 50 μl/well infected cells to pre-plated compounds. Plates were incubated at 37° C./5% CO2/90% relative humidity for ˜72 hrs to permit genomic replication, and infected cells were lysed by the addition of an equal volume of lysis buffer (10 mM Tris-HCl, pH8, 50 mM KCl, 2 mM MgCl2, 0.45% NP-40, 0.45% Tween-20, and 100 µg/ml proteinase K). An aliquot of the lysate was then transferred to a 384-well PCR plate and incubated at 56° C. for 1 hour, and then at 95° C. for 10 minutes. Levels of the selected viral gene and of the cellular control, PPIA, were measured in separate 10 μl qPCR assays using TaqMan® Gene Expression Master Mix (Applied Biosystems), and an 7900HT Fast Real-Time PCR System with 384-Well Block Module. 7-point, serial 10-fold dilutions of a plasmid standard were run on each plate to generate a standard curve, and genome copies numbers were calculated by plotting experimental Ct onto linear regression of the standard curve. Viral genome copy numbers were normalized by cellular control copy number, and compound effects were normalized to the window defined by the controls. Calculated % effects were fit using a 4-parameter algorithm, and EC50 was reported.

Row | Structure (SMILES) | EC50
1 | Cc1nc2cc(-c3cnc(C4CC4)nc3)c(O[C@H]3CCN4C(=O)OC[C@@H]4C3)cc2c(=O)n1Cc1ccc(Cl)cc1 [Example 95] | 366 nM
2 | Cc1nc2cc(C3CC(C)(O)C3)c(O[C@H]3CCN4C(=O)OC[C@@H]4C3)cc2c(=O)n1Cc1ccc(Cl)cc1 (single isomer, unassigned) [Example 77] | 217 nM
3 | CCOc1ncc(-c2cc3nc(C)n(Cc4ccc(Cl)cc4)c(=O)c3cc2O[C@H]2CCN3C(=O)OC[C@@H]3C2)cn1 [Example 98] | 284 nM
4 | Cc1nc2cc(-c3cn4c(n3)CN(C)CC4)c(O[C@H]3CCN4C(=O)OC[C@@H]4C3)cc2c(=O)n1Cc1ccc(C#N)cc1 [Example 87] | 198 nM
5 | Cc1nc2cc(C3CC(N)C3)c(O[C@H]3CCN4C(=O)OC[C@@H]4C3)cc2c(=O)n1Cc1ccc(C#N)cc1 (single isomer, unassigned) [Example 83] | 4600 nM
6 | Cc1nc2cc(-c3cc4n(n3)CCN(C)C4)c(O[C@H]3CCN4C(=O)OC[C@@H]4C3)cc2c(=O)n1Cc1ccc(Cl)cc1 [Example 86] | 68 nM
7 | Cc1cc2ccn(Cc3ccc(Cl)cc3)c(=O)c2cc1O[C@H]1CCN2C(=O)OC[C@@H]2C1 [Example 26] | 298 nM

system: HSV2; test: Viral qPCR assay, HSV2; assay type: cell-based; details: Human alphaherpesvirus 2, 72 h, infected cells, viral genome copies by qPCR normalized to PPIA, read-out: HSV2 Cell EC50
Method: as §1

Row | Structure (SMILES) | EC50
8 | Cc1nc2cc(-c3cnc(C4CC4)nc3)c(O[C@H]3CCN4C(=O)OC[C@@H]4C3)cc2c(=O)n1Cc1ccc(Cl)cc1 [Example 95] | 182 nM
9 | Cc1nc2cc(C3CC(C)(O)C3)c(O[C@H]3CCN4C(=O)OC[C@@H]4C3)cc2c(=O)n1Cc1ccc(Cl)cc1 (single isomer, unassigned) [Example 77] | 165 nM
10 | CCOc1ncc(-c2cc3nc(C)n(Cc4ccc(Cl)cc4)c(=O)c3cc2O[C@H]2CCN3C(=O)OC[C@@H]3C2)cn1 [Example 98] | 185 nM
11 | Cc1nc2cc(-c3cn4c(n3)CN(C)CC4)c(O[C@H]3CCN4C(=O)OC[C@@H]4C3)cc2c(=O)n1Cc1ccc(C#N)cc1 [Example 87] | 275 nM
12 | Cc1nc2cc(C3CC(N)C3)c(O[C@H]3CCN4C(=O)OC[C@@H]4C3)cc2c(=O)n1Cc1ccc(C#N)cc1 (single isomer, unassigned) [Example 83] | 21000 nM
13 | Cc1nc2cc(-c3cc4n(n3)CCN(C)C4)c(O[C@H]3CCN4C(=O)OC[C@@H]4C3)cc2c(=O)n1Cc1ccc(Cl)cc1 [Example 86] | 41 nM
14 | Cc1cc2ccn(Cc3ccc(Cl)cc3)c(=O)c2cc1O[C@H]1CCN2C(=O)OC[C@@H]2C1 [Example 26] | 356 nM

biological target: varicella zoster virus DNA polymerase (Varicella-zoster virus (strain Dumas) (HHV-3) (Human herpesvirus 3), UniProt P09252); test: VZV polymerase assay (AlphaLISA); assay type: biochemical; details: VZV polymerase 0.4 nM, 30 min pre-incubation, 60 minute at 37° C.
Method: (§2) Human cytomegalovirus and varicella zoster virus DNA polymerases were expressed via baculovirus vector in SF21 cells and purified. Heterodimeric nucleic acid substrate used in the herpesvirus polymerase reactions were generated by annealing a 59-mer template to a 17-mer digoxigenin-labeled primer. Polymerase (HCMV final concentration of 0.2 nM; VZV final concentration of 0.4 nM) was combined with an inhibitor compound or DMSO in assay buffer (10 mM HEPES, pH 7.5, 25 mM KCl, 25 mM NaCl, 5 mM MgCl2, 5% glycerol, 0.67 mg/ml bovine serum albumin, and 1 mM tris(2-carboxyethyl)phosphine)), and this mixture was pre-incubated for 30 minutes at room temperature in 384-well microtiter plates. The polymerization reaction was initiated by the addition of template/primer substrate (final concentration: 1.6 nM), and dNTPs (final concentration: 24 nM dCTP, 24 nMdGTP, 16 nM dATP, 16 nM dTTP, and 0.8 nM biotin-dUTP). After a 60 minute incubation period at 37° C., the reactions were terminated using quench buffer (25 mM HEPES pH 7.5, 100 mM NaCl, 0.25% Tween-20, 12 mM EDTA, and 1 mg/ml bovine serum albumin). Incorporation of biotinylated UTP was detected with 2.5-5 μg/mL anti-DIG AlphaLISA acceptor beads and 5-10 μg/mL streptavidin AlphaLISA donor beads (PerkinElmer). Compound effects were normalized to the window defined by the controls (DMSO only and pre-quenched wells), and were fit using a 4-parameter algorithm to report an IC50.

Row | Structure (SMILES) | IC50
15 | Cc1nc2cc(-c3cnc(C4CC4)nc3)c(O[C@H]3CCN4C(=O)OC[C@@H]4C3)cc2c(=O)n1Cc1ccc(Cl)cc1 [Example 95] | 19 nM
16 | Cc1nc2cc(C3CC(C)(O)C3)c(O[C@H]3CCN4C(=O)OC[C@@H]4C3)cc2c(=O)n1Cc1ccc(Cl)cc1 (single isomer, unassigned) [Example 77] | 3.4 nM
17 | CCOc1ncc(-c2cc3nc(C)n(Cc4ccc(Cl)cc4)c(=O)c3cc2O[C@H]2CCN3C(=O)OC[C@@H]3C2)cn1 [Example 98] | 15 nM
18 | Cc1nc2cc(-c3cn4c(n3)CN(C)CC4)c(O[C@H]3CCN4C(=O)OC[C@@H]4C3)cc2c(=O)n1Cc1ccc(C#N)cc1 [Example 87] | 0.8 nM
19 | Cc1nc2cc(C3CC(N)C3)c(O[C@H]3CCN4C(=O)OC[C@@H]4C3)cc2c(=O)n1Cc1ccc(C#N)cc1 (single isomer, unassigned) [Example 83] | 20 nM
20 | Cc1nc2cc(-c3cc4n(n3)CCN(C)C4)c(O[C@H]3CCN4C(=O)OC[C@@H]4C3)cc2c(=O)n1Cc1ccc(Cl)cc1 [Example 86] | 0.44 nM
21 | Cc1cc2ccn(Cc3ccc(Cl)cc3)c(=O)c2cc1O[C@H]1CCN2C(=O)OC[C@@H]2C1 [Example 26] | 18 nM

biological target: Human cytomegalovirus DNA polymerase (Human cytomegalovirus (strain AD169) (HHV-5) (Human herpesvirus 5), UniProt P08546); test: CMV polymerase assay (AlphaLISA); assay type: biochemical; details: HCMV polymerase 0.2 nM, 30 min pre-incubation, 60 minute at 37° C.
Method: as §2

Row | Structure (SMILES) | IC50
22 | Cc1nc2cc(-c3cnc(C4CC4)nc3)c(O[C@H]3CCN4C(=O)OC[C@@H]4C3)cc2c(=O)n1Cc1ccc(Cl)cc1 [Example 95] | 18 nM
23 | Cc1nc2cc(C3CC(C)(O)C3)c(O[C@H]3CCN4C(=O)OC[C@@H]4C3)cc2c(=O)n1Cc1ccc(Cl)cc1 (single isomer, unassigned) [Example 77] | 3.1 nM
24 | CCOc1ncc(-c2cc3nc(C)n(Cc4ccc(Cl)cc4)c(=O)c3cc2O[C@H]2CCN3C(=O)OC[C@@H]3C2)cn1 [Example 98] | 16 nM
25 | Cc1nc2cc(-c3cn4c(n3)CN(C)CC4)c(O[C@H]3CCN4C(=O)OC[C@@H]4C3)cc2c(=O)n1Cc1ccc(C#N)cc1 [Example 87] | 0.44 nM
26 | Cc1nc2cc(C3CC(N)C3)c(O[C@H]3CCN4C(=O)OC[C@@H]4C3)cc2c(=O)n1Cc1ccc(C#N)cc1 (single isomer, unassigned) [Example 83] | 19 nM
27 | Cc1nc2cc(-c3cc4n(n3)CCN(C)C4)c(O[C@H]3CCN4C(=O)OC[C@@H]4C3)cc2c(=O)n1Cc1ccc(Cl)cc1 [Example 86] | 0.44 nM
28 | Cc1cc2ccn(Cc3ccc(Cl)cc3)c(=O)c2cc1O[C@H]1CCN2C(=O)OC[C@@H]2C1 [Example 26] | 13 nM

system: HSV1; test: Viral qPCR assay, HSV1; assay type: cell-based; details: Human alphaherpesvirus 1, 72 h, infected cells, viral genome copies by qPCR normalized to PPIA, read-out: HSV1 Cell EC50
Method: as §1

Row | Structure (SMILES) | EC50
29 | Cc1nc2cc(-c3cnc(C4CC4)nc3)c(O[C@H]3CCN4C(=O)OC[C@@H]4C3)cc2c(=O)n1Cc1ccc(Cl)cc1 [Example 95] | 301 nM
30 | Cc1nc2cc(C3CC(C)(O)C3)c(O[C@H]3CCN4C(=O)OC[C@@H]4C3)cc2c(=O)n1Cc1ccc(Cl)cc1 (single isomer, unassigned) [Example 77] | 157 nM
31 | CCOc1ncc(-c2cc3nc(C)n(Cc4ccc(Cl)cc4)c(=O)c3cc2O[C@H]2CCN3C(=O)OC[C@@H]3C2)cn1 [Example 98] | 256 nM
32 | Cc1nc2cc(-c3cn4c(n3)CN(C)CC4)c(O[C@H]3CCN4C(=O)OC[C@@H]4C3)cc2c(=O)n1Cc1ccc(C#N)cc1 [Example 87] | 313 nM
33 | Cc1nc2cc(C3CC(N)C3)c(O[C@H]3CCN4C(=O)OC[C@@H]4C3)cc2c(=O)n1Cc1ccc(C#N)cc1 (single isomer, unassigned) [Example 83] | 6690 nM
34 | Cc1nc2cc(-c3cc4n(n3)CCN(C)C4)c(O[C@H]3CCN4C(=O)OC[C@@H]4C3)cc2c(=O)n1Cc1ccc(Cl)cc1 [Example 86] | 58 nM
35 | Cc1cc2ccn(Cc3ccc(Cl)cc3)c(=O)c2cc1O[C@H]1CCN2C(=O)OC[C@@H]2C1 [Example 26] | 673 nM
